Source: patent US8759051B2, “Control of contaminant microorganisms in fermentation processes with peroxygen-releasing compounds” (E I du Pont de Nemours and Company, priority 2010, dated 2014)

System: lactic acid bacteria (LAB)
Assay: Inactivation of LAB in molasses at pH 4.2 and 5.4 (Examples 2 and 3)
Assay type: cell-based
Settings: for reduction in the amount of LAB: 2 hours; for reduction in the levels of LAB: 2-hour
Method: Molasses (B&G Foods, Inc., Roseland, N.J.) was diluted 1 to 3.1 with water and sterilized as in Example 1. The prepared molasses was then divided into two lots and pH-adjusted using sulfuric acid to approximately pH 4.2 and 5.4, respectively. Cultures of LAB were prepared as in Example 1 and inoculated into the molasses to give approximately 1×10^6 CFU/ml. Sodium percarbonate (Alfa Aesar, Ward Hill, Mass.) was added to give 250, 500, and 750 ppm. […] Levels of LAB were enumerated by dilution and plating onto the surface of MRS agar followed by incubation at 32° C. LAB were enumerated at approximately 2 and 24 hours after the addition of sodium percarbonate.
Molasses was prepared as above and adjusted to pH 4.2 and 5.4 using sulfuric acid. Cultures of lactic acid bacteria were prepared as indicated in Example 1 and inoculated into the molasses to give approximately 10E6 CFU/ml. Levels of bacteria were confirmed by plating serial dilutions of the inoculated molasses onto the surface of MRS agar plates as in Example 1. Calcium peroxide was added at the levels indicated. Bacterial levels were enumerated at 2 and 24 hours following addition as described above.

O=C([O-])[O-].O=C([O-])[O-].OO.OO.OO.[Na+].[Na+].[Na+].[Na+] [Sodium percarbonate, sodium percarbonate]
CFU/ml LAB at hour indicated (molasses at pH 4.2, 250 ppm (69 ppm as H2O2), hour 2): 7.85 × 10^5 CFU/ml | CFU/ml LAB at hour indicated (molasses at pH 4.2, 250 ppm (69 ppm as H2O2), hour 24): 8.75 × 10^4 CFU/ml | CFU/ml LAB at hour indicated (molasses at pH 4.2, 500 ppm (138 ppm as H2O2), hour 2): 8.40 × 10^5 CFU/ml | CFU/ml LAB at hour indicated (molasses at pH 4.2, 500 ppm (138 ppm as H2O2), hour 24): 7.90 × 10^6 CFU/ml | CFU/ml LAB at hour indicated (molasses at pH 4.2, 750 ppm (207 ppm as H2O2), hour 2): 3.10 × 10^5 CFU/ml | CFU/ml LAB at hour indicated (molasses at pH 4.2, 750 ppm (207 ppm as H2O2), hour 24): 1.50 × 10^3 CFU/ml | CFU/ml LAB at hour indicated (molasses at pH 5.4, 250 ppm (69 ppm as H2O2), hour 2): 3.95 × 10^5 CFU/ml | CFU/ml LAB at hour indicated (molasses at pH 5.4, 250 ppm (69 ppm as H2O2), hour 24): 7.50 × 10^1 CFU/ml | CFU/ml LAB at hour indicated (molasses at pH 5.4, 500 ppm (138 ppm as H2O2), hour 2): 3.85 × 10^4 CFU/ml | CFU/ml LAB at hour indicated (molasses at pH 5.4, 500 ppm (138 ppm as H2O2), hour 24): 1.50 × 10^1 CFU/ml | CFU/ml LAB at hour indicated (molasses at pH 5.4, 750 ppm (207 ppm as H2O2), hour 2): 2.80 × 10^4 CFU/ml | CFU/ml LAB at hour indicated (molasses at pH 5.4, 750 ppm (207 ppm as H2O2), hour 24): <10 CFU/ml | CFU/ml LAB at hour indicated (molasses at pH 5.4, 750 ppm (207 ppm as H2O2), hour 24, listed as sodium percarbonate): below the detection limit | reduction in the amount of LAB (molasses pH 4.2, 250 ppm sodium percarbonate): approximately 1 log | reduction in the amount of LAB (molasses pH 4.2, 500 ppm sodium percarbonate): approximately 1 log | reduction in the amount of LAB (molasses pH 4.2, 750 ppm sodium percarbonate): approximately 1 log | reduction in the number of LAB (molasses pH 4.2, 750 ppm sodium percarbonate, 24 hour): more than 3 log units | reduction in the level of LAB (molasses pH 5.4, 250 ppm sodium percarbonate, 24-hour): ~6 log | reduction in the levels of LAB (molasses pH 5.4, 500 ppm sodium percarbonate): approximately 2 log | reduction in the levels of LAB (molasses pH 5.4, 750 ppm sodium percarbonate): approximately 2 log
